Assay results reported in patent US6593365B1, “Diflunisal esters and related compounds” (The University of Queensland, priority 1997, dated 2003).
“And” between values parts separate entries of the source, which are not always exact repeats. Identical values can stand only once. Marks after values point to notes of the source that are not given here.

Experiments:
[1] = test system: in-situ perfused rat liver; assay: In-situ rat liver perfusion bolus studies, moments and dispersion model analysis (Example 3); type: in vitro ADME, Sprague-Dawley rats; conditions: n = 3, Mean S.E.; for RN (efficiency number) / a (dispersion model): determined using equation 5 & 6; for CV^2 (normalized variance) / F (hepatic availability) / MTT (mean transit time): moments analysis, bolus, 30 mL/min; for CV^2 (normalized variance) / F (hepatic availability) / MTT (mean transit time) / Efflux rate coefficient (k2) / Elimination rate coefficient (kel) / Influx rate coefficient (k1): 2% BSA perfusate; for Efflux rate coefficient (k2) / Elimination rate coefficient (kel) / Influx rate coefficient (k1): two-compartment dispersion model fitting
Protocol: Mature female Sprague-Dawley rats were obtained from the University of Queensland Animal Breeding Facility and weighed between 180-270 grams. The animals were given access to a standard laboratory diet prior to experiment. Rats were anaesthetised by interperitoneal injection of pentobarbital sodium (60 mg/kg, Boehringer Ingelhein). […] The bile duct was cannulated with PE10 (Clay Adams, New Jersey). 0.025 gm/L taurocholic acid (Sigma Co., USA.) was dissolved in perfusate to stimulate bile production. The portal vein was then cannulated using a 16 G intravenous catheter and the liver was perfused via this cannula with 2% BSA Krebs-Henseleit bicarbonate buffer (pH 7.4) and oxygenated using a silastic tubing lung ventilated with carbogen (95% O2/5% CO2). The perfusion system used was non-recirculating and employed a peristaltic pump (Cole-Parmer, Illinois).
The animal was placed in a temperature controlled perfusion cabinet at 37° C. Liver viability was assessed by oxygen consumption, bile flow, diflunisal esters' extraction and macroscopic appearance.
Perfusions were made at 30 mL/min in each liver. After a 10 minute perfusion stabilization period, injectate (50 μL) containing Evans Blue (3 mg/mL) and [^3H]-water in a saturated solution of the particular O-acyl diflunisal ester or pregenerated diflunisal (which was injected as parent compound) in 2% BSA Krebs-Henseleit buffer, was injected into the liver with outlet samples collected via a fraction collector over one minute.
Aliquots (100 μL) of pooled perfusate samples were taken for Evans Blue spectrophotometric analysis and [^3H]-water scintillation counting before adjusting pH. These pooled samples were then acidified to pH 2.0 by addition of 1 M HCl and extracted into 2.5 volumes of ether. […] The ether fraction was then removed and reduced to approximately 100 μL by evaporation under air and prepared as before for HPLC analysis. A known concentration of each buffer solution of ester was concurrently extracted and assayed with the perfusate samples to assess the degree of spontaneous hydrolysis occurring over the duration of the extraction procedure. This non-enzymatic hydrolysis was converted for in the analysis. The total recovery of diflunisal esters extracted using this technique was >90%.
The F, MTT and CV^2 for the diflunisal esters (or pregenerated DF) and the reference solutes (EB and [^3H]-water) were determined from the outflow concentration versus time profile using equation (1)-(4), with the assistance of the Moments Calculator 2.2 program for Macintosh computer developed by Robert Purves (Purves RD, 1994, J. Pharm. Sci. 83 202-205). [formula] [formula]
where Q is the perfusate flow rate, D is the dose of diflunisal esters administered. The area under the concentration-time curve (AUC) and the first moment curve (AUMC) were estimated by the trapezoidal rule integration with appropriate modification for tail (Mellick et al., 1996, submitted for publication). [formula]
The moment data was further examined using the dispersion model of hepatic elimination which defines F of an extracted solute by the equation (Roberts et al., 1990, J. Pharmacokin. Biopharm. 18 209-234): [formula]
a={square root over (1+4RNDN)} (6)
DN is the dispersion number which describes the spread of solute residence times in the liver following bolus input and equal half the normalized variance for a non-extracted reference indicator [formula]
RN is the efficiency number which characterises the elimination of solute by the liver and is defined by the equation: [formula]
(Gillette, 1971, Ann. N. Acad. Sci. 179 43-61)), and Q is the perfusate flow rate. If F for a solute and the CV^2 for a non-extracted reference solute (eg. EB) are known, we can solve for “a” using equation (5) and then for “RN” using equation (6).
The dispersion model expressions (Roberts et al., 1990) for MTT and CV^2 are presented in equations (8) and (9). [formula] [formula] […]

[2] = Maximum solubility in 2% BSA Krebs-Henseleit buffer (pH 7.4); type: physicochemical; conditions: 25 1° C.
Source text: The intrinsic solubility of diflunisal esters is extremely low (TABLE 2). The more lipophilic the analogue, the higher the solubility of solute under these conditions.

[3] = Intrinsic (maximum) solubility in water at pH 1.5; type: physicochemical; conditions: for solubility: 25 °C, pH 1.5, simulated gastric fluid
Protocol: The pH conditions were chosen to ensure that the solubility of the unionised species was estimated. […] Lea & Febiger/Philadelphia. […] […] The solvent (9.9 mL) was then added to the test tube. […] The test tube was sonicated for 15 minutes and centrifuged for 10 minutes (3000 g at 25° C.). An aliquot was filtered (Minisart 0.45 μm filter, Satorius) and diluted with HPLC mobile phase, then assayed. The tube was stored carefully in a 25° C. water bath after sampling and the remaining suspension was again sonicated and the process repeated 7 times at four hourly intervals. In these assays, standard curves were prepared by directly dissolving the esters in mobile phase. Concentrations for standard curves ranged from 1-50 μg/mL for all compounds. Furthermore, a manual injector (Waters Model U6K) was used (20 μL sample loop) which ensured that 20 μL was consistently injected onto the column and precluded the need for an internal standard.

Row | RN (efficiency number) [1] | a (dispersion model) [1] | CV^2 (normalized variance) [1] | F (hepatic availability) [1] | MTT (mean transit time) [1] [s] | RN/fub (removal of unbound solute) [1] | Efflux rate coefficient (k2) [1] [s⁻¹] | Elimination rate coefficient (kel) [1] [s⁻¹] | Influx rate coefficient (k1) [1] | Maximum solubility [2] [mM] | Maximum solubility ([2]; mean standard deviation (n=3)) [µg/mL] | Maximum solubility ([3]; water at pH 1.5, 25 1° C., U = Undetectable) [mM] | RN/fub (removal of unbound solute) ([1]; listed as acetyl) | RN/fub (removal of unbound solute) ([1]; listed as hexanoyl) | solubility [3] | SMILES
1 | 1.32 ± 0.03 | 1.77 ± 0.02 | 1.02 ± 0.33 | 0.38 ± 0.02 | 6.62 ± 0.84 | 11.04 ± 0.39 | 0.14 ± 0.07 | 0.18 ± 0.06 | 0.51 ± 0.16 s⁻¹ | 20.90 | 6980 ± 150 |  |  |  |  | CCCCC(=O)Oc1ccc(-c2ccc(F)cc2F)cc1C(=O)O [Compound C5D, n-pentanoyldiflunisal]
2 | 2.58 ± 0.02 | 2.26 ± 0.02^c | 0.70 ± 0.19 | 0.21 ± 0.03 | 10.36 ± 2.31 | 9.57 ± 0.37 | 0.25 ± 0.03 | 0.18 ± 0.02 | 1.20 ± 0.11 s⁻¹ | 7.57 | 2200 ± 70 | 0.03 | 9.57 |  |  | CC(=O)Oc1ccc(-c2ccc(F)cc2F)cc1C(=O)O [Compound C2D, acetyldiflunisal]
3 | 1.32 ± 0.03 | 1.77 ± 0.03 | 1.15 ± 0.48 | 0.38 ± 0.04 | 6.19 ± 0.95 | 16.50 ± 0.22 | 0.06 ± 0.03 | 0.15 ± 0.03 | 0.63 ± 0.24 s⁻¹ | 44.77 | 15580 ± 300 |  |  | 16.50 |  | CCCCCC(=O)Oc1ccc(-c2ccc(F)cc2F)cc1C(=O)O [Compound C6D, n-hexanoyldiflunisal]
4 |  |  |  |  |  |  |  |  |  |  |  |  |  |  | 570 µg/mL and 2700 µM | CCCC(=O)Oc1ccccc1C(=O)O [Compound C4SA, n-butanoylsalicylic acid]
5 | 1.56 ± 0.02 | 1.87 ± 0.01 | 1.01 ± 0.18 | 0.34 ± 0.01 | 7.73 ± 0.99 | 11.17 ± 0.38 | 0.08 ± 0.04 | 0.16 ± 0.07 | 0.41 ± 0.12 s⁻¹ | 12.38 | 3960 ± 80 |  |  |  |  | CCCC(=O)Oc1ccc(-c2ccc(F)cc2F)cc1C(=O)O [Compound C4D, n-butanoyldiflunisal]
6 |  |  |  |  |  |  |  |  |  |  |  |  |  |  | 74 µg/mL and 330 µM | CCCCC(=O)Oc1ccccc1C(=O)O [Compound C5SA, n-pentanoylsalicylic acid]
7 |  |  |  |  |  |  |  |  |  |  |  |  |  |  | 19 µg/mL and 80 µM | CCCCCC(=O)Oc1ccccc1C(=O)O [Compound C6SA, n-hexanoylsalicylic acid]

Row | SMILES | RN (efficiency number) [1] | a (dispersion model) [1] | CV^2 (normalized variance) [1] | F (hepatic availability) [1] | MTT (mean transit time) [1] [s] | RN/fub (removal of unbound solute) [1] | Efflux rate coefficient (k2) [1] [s⁻¹] | Elimination rate coefficient (kel) [1] [s⁻¹] | Influx rate coefficient (k1) [1] | Maximum solubility [2] [mM] | Maximum solubility ([2]; mean standard deviation (n=3)) [µg/mL] | Maximum solubility ([3]; water at pH 1.5, 25 1° C., U = Undetectable) [mM] | RN/fub (removal of unbound solute) ([1]; listed as acetyl) | RN/fub (removal of unbound solute) ([1]; listed as hexanoyl) | solubility [3]
8 | O=C(O)c1cc(-c2ccc(F)cc2F)ccc1O [DF, 2′,4′-difluoro-4-hydroxy-3-biphenylcarboxylic acid, reference compound] |  | 1.33 ± 0.01 | 0.99 ± 0.27 |  | 6.80 ± 0.94 | 9.51 ± 0.18 | 0.02 ± 0.01 | 0.06 ± 0.01 | 0.18 ± 0.03^b sec^−1 |  |  |  |  |  | 
